Data: US9434711B2 (Janssen Pharmaceutica, NV, priority 2007, dated 2016)

Molecular target: canine TRPM8 (Canis lupus familiaris, UniProt Q1A7N1)
Assay: In Vitro Canine TRPM8 Functional Assay (Ca2+ fluorescence, icilin activation)
Assay type: cell-based
Details: for IC50: HEK293 cells stably expressing canine TRPM8, icilin activation, eight-point dose-response, read-out: IC50; for inhibition at 0.2 µM / % Inh @ 0.2 (μM): compound at 0.2 μM, canine TRPM8, icilin activation; for inhibition at 0.2 µM: read-out: % Inh @ 0.2
Summary of the method: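 HEK293 cells stably expressing canine TRPM8 were loaded with Calcium 3 dye (35 min at 37 °C, then 25 min at room temperature). Compound was added and Ca2+ fluorescence was read for 5 min before icilin at a concentration giving about 80% maximal response. EC50/IC50 came from eight-point dose-response curves, quadruplicate wells.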

Sequence of canine TRPM8 (Q1A7N1 1-1104): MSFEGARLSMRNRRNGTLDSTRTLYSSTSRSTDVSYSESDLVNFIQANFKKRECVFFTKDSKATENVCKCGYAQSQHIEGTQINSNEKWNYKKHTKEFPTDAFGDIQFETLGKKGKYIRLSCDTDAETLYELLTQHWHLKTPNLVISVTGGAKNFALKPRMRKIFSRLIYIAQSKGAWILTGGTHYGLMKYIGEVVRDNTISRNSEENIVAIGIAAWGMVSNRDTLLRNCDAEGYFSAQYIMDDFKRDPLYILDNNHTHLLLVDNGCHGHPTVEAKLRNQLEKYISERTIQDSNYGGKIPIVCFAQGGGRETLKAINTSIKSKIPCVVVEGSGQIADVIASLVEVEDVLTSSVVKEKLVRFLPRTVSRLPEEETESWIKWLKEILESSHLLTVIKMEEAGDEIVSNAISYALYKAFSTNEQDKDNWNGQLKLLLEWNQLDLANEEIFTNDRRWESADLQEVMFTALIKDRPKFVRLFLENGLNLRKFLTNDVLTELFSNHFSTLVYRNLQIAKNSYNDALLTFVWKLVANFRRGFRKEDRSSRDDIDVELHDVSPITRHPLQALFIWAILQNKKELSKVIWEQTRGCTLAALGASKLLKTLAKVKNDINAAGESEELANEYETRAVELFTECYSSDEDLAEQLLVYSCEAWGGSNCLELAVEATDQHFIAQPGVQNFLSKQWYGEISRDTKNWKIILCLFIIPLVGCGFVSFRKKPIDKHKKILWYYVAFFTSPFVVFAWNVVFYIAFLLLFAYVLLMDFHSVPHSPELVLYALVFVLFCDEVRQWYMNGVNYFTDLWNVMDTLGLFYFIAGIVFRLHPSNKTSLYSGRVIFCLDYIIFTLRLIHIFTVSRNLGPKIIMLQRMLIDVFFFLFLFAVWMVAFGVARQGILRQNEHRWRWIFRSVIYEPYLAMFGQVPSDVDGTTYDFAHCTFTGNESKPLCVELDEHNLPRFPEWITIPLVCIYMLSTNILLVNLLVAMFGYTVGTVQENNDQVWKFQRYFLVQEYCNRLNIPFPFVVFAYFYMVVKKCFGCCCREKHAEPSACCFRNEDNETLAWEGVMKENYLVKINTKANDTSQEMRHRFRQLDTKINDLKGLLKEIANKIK

Row | Compound | IC50 | inhibition at 0.2 µM | % Inh @ 0.2 (μM)
1 | CC1=C(N(CCCC(F)(F)F)S(=O)(=O)c2ccccc2)S(=O)(=O)c2ccccc21 [Compound 620, N-(3-Methyl-1,1-dioxo-benzo[b]thiophen-2-yl)-N-(4,4,4-trifluoro-butyl)-benzenesulfonamide] | 23.4 nM | 101% | 
2 | CC1=C(N(CCCCC(F)(F)F)S(=O)(=O)c2ccccc2)S(=O)(=O)c2ccccc21 [Compound 621, N-(3-Methyl-1,1-dioxo-benzo[b]thiophen-2-yl)-N-(5,5,5-trifluoro-pentyl)-benzenesulfonamide] | 11 nM | 101% | 
3 | CC1=C(N(Cc2ccc(F)c(C(F)(F)F)c2)S(=O)(=O)c2ccccc2)S(=O)(=O)c2ccccc21 [Compound 622, N-(4-Fluoro-3-trifluoromethyl-benzyl)-N-(3-methyl-1,1-dioxo-benzo[b]thiophen-2-yl)-benzenesulfonamide] | 31.3 nM | 89% | 
4 | Cc1c(N(Cc2ccc(F)c(C(F)(F)F)c2)S(=O)(=O)c2ccc(C(=O)NS(C)(=O)=O)cc2)sc2ccccc12 [Compound 623, N-(3-Methyl-benzo[b]thiophen-2-yl)-N-(4-fluoro-3-trifluoromethyl-benzyl)-4-methanesulfonylaminocarbonyl-benzenesulfonamide] | 7 nM | 101% | 
5 | O=S1NC(c2ccc(S(=O)(=O)N(CCC3CC3)c3sc4ccccc4c3Br)cc2)=NO1 (centres unmarked) [Compound 624, N-(3-Bromo-benzo[b]thiophen-2-yl)-N-(cyclopropyl-ethyl)-4-(3H-[1,2,3,5]oxathiadiazole-2-oxide)-benzenesulfonamide] | 13.4 nM |  | 103%
6 | O=S1NC(c2ccc(S(=O)(=O)N(CCC3CC3)c3sc4ccccc4c3Cl)cc2)=NO1 (centres unmarked) [Compound 625, N-(3-Chloro-benzo[b]thiophen-2-yl)-N-(cyclopropyl-ethyl)-4-(3H-[1,2,3,5]oxathiadiazole-2-oxide)-benzenesulfonamide] | 20.4 nM |  | 103%
7 | O=c1[nH]c(-c2ccc(S(=O)(=O)N(CCC3CC3)c3sc4ccccc4c3Br)cc2)no1 [Compound 626, N-(3-Bromo-benzo[b]thiophen-2-yl)-N-(cyclopropyl-ethyl)-4-(5-oxo-4,5-dihydro-[1,2,4]oxadiazol-3-yl)-benzenesulfonamide] | 7.4 nM | 103% | 
8 | O=c1[nH]c(-c2ccc(S(=O)(=O)N(CCC3CC3)c3sc4ccccc4c3Cl)cc2)no1 [Compound 627, N-(3-Chloro-benzo[b]thiophen-2-yl)-N-(cyclopropyl-ethyl)-4-(5-oxo-4,5-dihydro-[1,2,4]oxadiazol-3-yl)-benzenesulfonamide] | 8.6 nM | 103% | 
9 | COC(=O)c1ccc(S(=O)(=O)N(CCC2CC2)c2sc3ccccc3c2C)cc1 [Compound 628, N-(2-Cyclopropyl-ethyl)-N-(3-methyl-benzo[b]thiophen-2-yl)-4-carbomethoxy-benzenesulfonamide] | 23.3 nM | 103% | 
10 | COC(=O)c1ccc(S(=O)(=O)N(CCC(F)(F)F)c2sc3ccccc3c2C)cc1 [Compound 629, N-(3-Methyl-benzo[b]thiophen-2-yl)-N-(3,3,3-trifluoro-propyl)-4-carbomethoxy-benzenesulfonamide] | 26.2 nM | 103% | 
11 | COC(=O)c1ccc(S(=O)(=O)N(CCCC(F)(F)F)c2sc3ccccc3c2C)cc1 [Compound 630, N-(3-Methyl-benzo[b]thiophen-2-yl)-N-(4,4,4-trifluoro-butyl)-4-carbomethoxy-benzenesulfonamide] | 35.6 nM | 103% | 
12 | COC(=O)c1ccc(S(=O)(=O)N(CCCCC(F)(F)F)c2sc3ccccc3c2C)cc1 [Compound 631, N-(3-Methyl-benzo[b]thiophen-2-yl)-N-(5,5,5-trifluoro-pentyl)-4-carbomethoxy-benzenesulfonamide] | 26.3 nM | 103% | 
13 | CC1=C(N(CCC2CC2)S(=O)(=O)c2ccc(C(=O)O)cc2)S(=O)(=O)c2ccccc21 [Compound 632, N-(2-Cyclopropyl-ethyl)-N-(3-methyl-1,1-dioxo-benzo[b]thiophen-2-yl)-4-carboxy-benzenesulfonamide] |  | 12% | 
14 | CC1=C(N(CCCCC(F)(F)F)S(=O)(=O)c2ccc(C(=O)O)cc2)S(=O)(=O)c2ccccc21 [Compound 633, N-(3-Methyl-1,1-dioxo-benzo[b]thiophen-2-yl)-N-(5,5,5-trifluoro-pentyl)-4-carboxy-benzenesulfonamide] |  | 17% | 
15 | CC1=C(N(Cc2ccc(F)c(C(F)(F)F)c2)S(=O)(=O)c2ccc(C(=O)O)cc2)S(=O)(=O)c2ccccc21 [Compound 634, N-(4-Fluoro-3-trifluoromethyl-benzyl)-N-(3-methyl-1,1-dioxo-benzo[b]thiophen-2-yl)-4-carboxy-benzenesulfonamide] |  | 55% | 
16 | O=S(=O)(c1ccc(-c2nnn[nH]2)cc1)N(CCC1CC1)c1sc2ccccc2c1Cl [Compound 635, N-(3-Chloro-benzo[b]thiophen-2-yl)-N-(2-cyclopropyl-ethyl)-4-(1H-tetrazol-5-yl)-benzenesulfonamide] | 7.4 nM | 101% | 
17 | O=S(=O)(c1ccc(-c2nnn[nH]2)cc1)N(CCC(F)(F)F)c1sc2ccccc2c1Cl [Compound 636, N-(3-Chloro-benzo[b]thiophen-2-yl)-N-(3,3,3-trifluoro-propyl)-4-(1H-tetrazol-5-yl)-benzenesulfonamide] | 46 nM | 103% | 
18 | Cc1c(N(CCC(F)(F)F)S(=O)(=O)c2ccc(-c3nsc(=O)[nH]3)cc2)sc2ccccc12 [Compound 637, N-(3-Methyl-benzo[b]thiophen-2-yl)-N-(3,3,3-trifluoro-propyl)-4-(5-oxo-4,5-dihydro-[1,2,4]thiadiazol-3-yl)-benzenesulfonamide] | 12.2 nM | 104% | 
19 | O=C(O)c1ccc(S(=O)(=O)N(CCC2CC2)c2cc3ccccc3s2)c(F)c1 [Compound 638, N-(3-Benzo[b]thiophen-2-yl)-N-(2-cyclopropyl-ethyl)-2-fluoro-4-carboxy-benzenesulfonamide] | 60 nM |  | 100%
20 | O=C(O)c1ccc(S(=O)(=O)N(CCC(F)(F)F)c2cc3ccccc3s2)c(F)c1 [Compound 639, N-(3-Benzo[b]thiophen-2-yl)-N-(3,3,3-trifluoro-propyl)-2-fluoro-4-carboxy-benzenesulfonamide] | 128 nM |  | 84%
21 | Cc1c(N(CCCCC(F)(F)F)S(=O)(=O)c2ccc(-c3nsc(=O)[nH]3)cc2)sc2ccccc12 [Compound 640, N-(3-Methyl-benzo[b]thiophen-2-yl)-N-(5,5,5-trifluoro-pentyl)-4-(5-oxo-4,5-dihydro-[1,2,4]thiadiazol-3-yl)-benzenesulfonamide] | 11 nM | 103% | 
22 | Cc1c(N(CCC2CC2)S(=O)(=O)c2ccc(-c3nsc(=O)[nH]3)cc2)sc2ccccc12 [Compound 641, N-(3-Methyl-benzo[b]thiophen-2-yl)-N-(cyclopropyl-ethyl)-4-(5-oxo-4,5-dihydro-[1,2,4]thiadiazol-3-yl)-benzenesulfonamide] | 14 nM | 103% | 
